Data on two compounds can be found in patent US20120329736A1, “Treatment for gastrointestinal disorders using a selective, site-activated binding system” (priority 2011, published 2012).

In brackets after ≈: the same amount, converted by molar mass.

The test system of data set [1] is broad spectrum of bacteria, gram positive and gram negative. Particulars: cited from earlier work.
For data set [2] the following is noted: cited from earlier work.
A short description of data set [3]: Hydrogen peroxide retention by extracts after desiccation and rehydration (colorimetric strips). The class given is physicochemical. As to conditions: dissolved in 35% hydrogen peroxide, heated at 80° C., desiccated, rehydrated. Here is the method:
In order to compare the samples provided above, a test series was prepared in 30 ml tubes containing from 1 g-10 g of the above extracts of Chinese Gall, Green Tea, Pomegranate and Resveratrol. Each was dissolved in 20 ml of 35% hydrogen peroxide then separate to two aliquots. One part was heated at 80° C. to a dark viscous semi-liquid and allowed to desiccate to a final volume of 5 ml. Each was rehydrated and serially diluted to detection range.

RIFAXAMIN: the “MIC performance compared to the binding system” value in data set [1] was “performed poorly compared to the binding system”. Regarding `Oc1ccc(C=Cc2cc(O)cc(O)c2)cc1` [Resveratrol], the water solubility in data set [2] is 3 µg/mL (≈ 13.1 µM). Also, the peroxide retention capability result in data set [3] was “relatively less ability to form stable perhydrates”.
